Reference: patent publication US5916873A, “Teicoplanin derivatives” (Eli Lilly and Company, priority 1998, dated 1999)
In brackets after ≈: the same amount, converted by molar mass.

Tests used:
[1] = system: H. influR D/BL+; assay type: cell-based, H. influ; settings: Table 2C; strain RD/BL+
Protocol: (§1) The antibacterial efficacy of the present teicoplanin derivatives is illustrated by the following tables. The minimal inhibitory concentrations (MICs) were determined using a standard broth micro-dilution assay.

[2] = system: S. aureus SA1199B; test: standard broth micro-dilution MIC; assay type: cell-based; settings: Table 2B; strain SA1199B
Protocol: as §1

[3] = system: S. aureus S13E; test: standard broth micro-dilution MIC; assay type: cell-based; settings: Table 2A; strain S13E
Protocol: as §1

[4] = system: E. gall. 245; test: standard broth micro-dilution MIC; assay type: cell-based; settings: Table 2C; strain 245
Protocol: as §1

[5] = system: M. cat M12; test: standard broth micro-dilution MIC; assay type: cell-based; settings: Table 2C; strain M12
Protocol: as §1

[6] = system: S. aureus 447; test: standard broth micro-dilution MIC; assay type: cell-based; settings: Table 2A; strain 447
Protocol: as §1

[7] = system: H. influ RD; test: standard broth micro-dilution MIC; assay type: cell-based; settings: Table 2C; strain RD
Protocol: as §1

[8] = system: S. aureus X778; test: standard broth micro-dilution MIC; assay type: cell-based; settings: Table 2A; strain X778
Protocol: as §1

[9] = system: St. pneumo P1; test: standard broth micro-dilution MIC; assay type: cell-based; settings: Table 2C; strain P1
Protocol: as §1

[10] = system: S. aureus 489; test: standard broth micro-dilution MIC; assay type: cell-based; settings: Table 2A; strain 489
Protocol: as §1

[11] = system: S. aureus SA1199R; test: standard broth micro-dilution MIC; assay type: cell-based; settings: Table 2B; strain SA1199R
Protocol: as §1

[12] = system: E. f. 180; test: standard broth micro-dilution MIC; assay type: cell-based; settings: Table 2B; strain 180
Protocol: as §1

[13] = system: S. epi 270; test: standard broth micro-dilution MIC; assay type: cell-based; settings: Table 2B; strain 270
Protocol: as §1

[14] = system: E. f. 2041; test: standard broth micro-dilution MIC; assay type: cell-based; settings: Table 2B; strain 2041
Protocol: as §1

[15] = system: St. pyro C203; test: standard broth micro-dilution MIC; assay type: cell-based; settings: Table 2C; strain C203
Protocol: as §1

[16] = system: E. f. 180-1; test: standard broth micro-dilution MIC; assay type: cell-based; settings: Table 2B; strain 180-1
Protocol: as §1

[17] = system: EC14; test: standard broth micro-dilution MIC; assay type: cell-based; settings: Table 2C; strain EC14
Protocol: as §1

[18] = system: E. f. 276; test: standard broth micro-dilution MIC; assay type: cell-based; settings: Table 2C; strain 276
Protocol: as §1

[19] = system: S. h. 415; test: standard broth micro-dilution MIC; assay type: cell-based; settings: Table 2B; strain 415
Protocol: as §1

[20] = system: S. aureus SA1199; test: standard broth micro-dilution MIC; assay type: cell-based; settings: Table 2A; strain SA1199
Protocol: as §1

[21] = system: S. aureus 446; test: standard broth micro-dilution MIC; assay type: cell-based; settings: Table 2A; strain 446
Protocol: as §1

[22] = system: S. h. 105; test: standard broth micro-dilution MIC; assay type: cell-based; settings: Table 2B; strain 105
Protocol: as §1

[23] = system: S. aureus 491; test: standard broth micro-dilution MIC; assay type: cell-based; settings: Table 2A; strain 491
Protocol: as §1

[24] = system: S. aureus X400; test: standard broth micro-dilution MIC; assay type: cell-based; settings: Table 2A; strain X400
Protocol: as §1

[25] = system: vancomycin-resistant enterococci; test: mean geometric MIC, vancomycin-resistant enterococci, broth micro-dilution; assay type: cell-based, Enterococcus faecium and Enterococcus faecalis; settings: Table 3, representative vancomycin-resistant enterococci
Protocol: as §1

[26] = system: vancomycin-sensitive enterococci; test: mean geometric MIC, vancomycin-sensitive enterococci, broth micro-dilution; assay type: cell-based, Enterococcus faecium and Enterococcus faecalis; settings: Table 3, representative vancomycin-sensitive enterococci
Protocol: as §1

| SMILES | MIC S. aureus SA1199B [2] | MIC S. aureus S13E [3] | MIC E. gall. 245 [4] | MIC M. cat M12 [5] | MIC S. aureus 447 [6] | MIC S. aureus X778 [8] | MIC St. pneumo P1 [9] | MIC S. aureus 489 [10] | MIC S. aureus SA1199R [11] | MIC E. f. 180 [12] | MIC S. epi 270 [13] | MIC E. f. 2041 [14] | MIC St. pyro C203 [15] | MIC E. f. 180-1 [16] | MIC EC14 [17] [µg/mL] | MIC E. f. 276 [18] | MIC S. h. 415 [19] [µg/mL] | MIC S. aureus SA1199 [20] | MIC S. aureus 446 [21] | MIC S. h. 105 [22] | other results |
| --- | --- | --- | --- | --- | --- | --- | --- | --- | --- | --- | --- | --- | --- | --- | --- | --- | --- | --- | --- | --- | --- |
| CC(=O)NC1C(OC2c3ccc(c(Cl)c3)Oc3cc4cc(c3OC3OC(CO)C(O)C(O)C3NCc3ccc(-c5ccccc5)cc3)Oc3ccc(cc3Cl)CC3NC(=O)C(NCc5ccc(-c6ccccc6)cc5)c5ccc(O)c(c5)Oc5cc(O)cc(c5)C(NC3=O)C(=O)NC4C(=O)NC3C(=O)NC2C(=O)NC(C(=O)O)c2cc(O)cc(OC4OC(CO)C(O)C(O)C4O)c2-c2cc3ccc2O)OC(CO)C(O)C1O.O=C(O)C(F)(F)F (stereo not drawn) [Example 1, Deacyl Teicoplanin, Bis(4-phenylbenzyl) Derivative] | 0.5 µg/mL | 0.25 µg/mL | ≤ .06 µg/mL | ≤ .06 µg/mL | 2 µg/mL | 0.25 µg/mL | ≤ .06 µg/mL | 0.125 µg/mL | ≤ .06 µg/mL | ≤ 06 µg/mL | 1 µg/mL | ≤ .06 µg/mL | ≤ .06 µg/mL | ≤ .06 µg/mL | > 64 | ≤ .06 µg/mL | 4 | 0.25 µg/mL | 0.5 µg/mL | ≤ .06 µg/mL | MIC H. influR D/BL+ [1]: 64 µg/mL; MIC H. influ RD [7]: 64 µg/mL; MIC S. aureus 491 [23]: 0.25 µg/mL; MIC S. aureus X400 [24]: 0.25 µg/mL |
| CC(=O)NC1C(OC2c3ccc(c(Cl)c3)Oc3cc4cc(c3OC3OC(CO)C(O)C(O)C3N)Oc3ccc(cc3Cl)CC3NC(=O)C(NCc5ccc(-c6ccccc6)cc5)c5ccc(O)c(c5)Oc5cc(O)cc(c5)C(NC3=O)C(=O)NC4C(=O)NC3C(=O)NC2C(=O)NC(C(=O)O)c2cc(O)cc(OC4OC(CO)C(O)C(O)C4O)c2-c2cc3ccc2O)OC(CO)C(O)C1O (stereo not drawn) [Example 2, Deacyl Teicoplanin, N^15-(4-phenylbenzyl) Derivative] | ≤ .03 µg/mL | ≤ .03 µg/mL | 0.25 µg/mL (≈ 0.132 µM) | 0.25 µg/mL (≈ 0.132 µM) | 0.25 µg/mL (≈ 0.132 µM) | 0.125 µg/mL (≈ 0.0661 µM) | ≤ .03 µg/mL | ≤ .03 µg/mL | ≤ .03 µg/mL | 32 µg/mL (≈ 16.9 µM) | 0.25 µg/mL (≈ 0.132 µM) | ≤ .03 µg/mL | ≤ .03 µg/mL | 0.25 µg/mL (≈ 0.132 µM) | > 32 | ≤ .03 µg/mL | 8 (≈ 4.23 µM) | ≤ .03 µg/mL | ≤ .03 µg/mL | 0.25 µg/mL (≈ 0.132 µM) | MIC H. influR D/BL+ [1]: 32 µg/mL (≈ 16.9 µM); Resist. MIC [25]: > 32 µg/mL; Sens. MIC [26]: 2.6 µg/mL; MIC H. influ RD [7]: 16 µg/mL (≈ 8.46 µM); MIC S. aureus 491 [23]: ≤ .03 µg/mL; MIC S. aureus X400 [24]: ≤ .03 µg/mL |
| CCCCc1ccc(CNC2C(=O)NC3Cc4ccc(c(Cl)c4)Oc4cc5cc(c4OC4OC(CO)C(O)C(O)C4NCc4ccc(CCCC)cc4)Oc4ccc(cc4Cl)C(OC4OC(CO)C(O)C(O)C4NC(C)=O)C4NC(=O)C(NC(=O)C5NC(=O)C(NC3=O)c3cc(O)cc(c3)Oc3cc2ccc3O)c2ccc(O)c(c2)-c2c(OC3OC(CO)C(O)C(O)C3O)cc(O)cc2C(C(=O)O)NC4=O)cc1 (stereo not drawn) [Example 5] | 0.25 µg/mL (≈ 0.124 µM) | 1 µg/mL (≈ 0.496 µM) | ≤ .06 µg/mL | ≤ .06 µg/mL | 0.5 µg/mL (≈ 0.248 µM) | 0.25 µg/mL (≈ 0.124 µM) | ≤ .06 µg/mL | 0.5 µg/mL (≈ 0.248 µM) | ≤ .06 µg/mL | ≤ .06 µg/mL | 0.25 µg/mL (≈ 0.124 µM) | ≤ .06 µg/mL | ≤ .06 µg/mL | ≤ .06 µg/mL | > 64 | ≤ .06 µg/mL | 4 (≈ 1.98 µM) | 0.25 µg/mL (≈ 0.124 µM) | 0.5 µg/mL (≈ 0.248 µM) | 0.125 µg/mL (≈ 0.0619 µM) | MIC H. influR D/BL+ [1]: 1 µg/mL (≈ 0.496 µM); Resist. MIC [25]: 0.84 µg/mL; Sens. MIC [26]: 0.25 µg/mL; MIC H. influ RD [7]: 64 µg/mL (≈ 31.7 µM); MIC S. aureus 491 [23]: 0.25 µg/mL (≈ 0.124 µM); MIC S. aureus X400 [24]: 0.25 µg/mL (≈ 0.124 µM) |
| CC(=O)NC1C(OC2c3ccc(c(Cl)c3)Oc3cc4cc(c3OC3OC(CO)C(O)C(O)C3NCc3ccc5ccccc5c3)Oc3ccc(cc3Cl)CC3NC(=O)C(NCc5ccc6ccccc6c5)c5ccc(O)c(c5)Oc5cc(O)cc(c5)C(NC3=O)C(=O)NC4C(=O)NC3C(=O)NC2C(=O)NC(C(=O)O)c2cc(O)cc(OC4OC(CO)C(O)C(O)C4O)c2-c2cc3ccc2O)OC(CO)C(O)C1O (stereo not drawn) [Example 6] | ≤ .06 µg/mL | ≤ .06 µg/mL | ≤ .06 µg/mL | ≤ .06 µg/mL | ≤ .06 µg/mL | ≤ .06 µg/mL | ≤ .06 µg/mL | ≤ .06 µg/mL | ≤ .06 µg/mL | 0.25 µg/mL (≈ 0.125 µM) | ≤ .06 µg/mL | ≤ .06 µg/mL | ≤ .06 µg/mL | ≤ .06 µg/mL | > 64 | ≤ .06 µg/mL | 4 (≈ 1.99 µM) | ≤ .06 µg/mL | ≤ .06 µg/mL | ≤ .06 µg/mL | MIC H. influR D/BL+ [1]: 1 µg/mL (≈ 0.499 µM); Resist. MIC [25]: 3.4 µg/mL; Sens. MIC [26]: 0.11 µg/mL; MIC H. influ RD [7]: 16 µg/mL (≈ 7.98 µM); MIC S. aureus 491 [23]: ≤ .06 µg/mL; MIC S. aureus X400 [24]: ≤ .06 µg/mL |
| CC(=O)NC1C(OC2c3ccc(c(Cl)c3)Oc3cc4cc(c3OC3OC(CO)C(O)C(O)C3NCc3cccc(Oc5ccccc5)c3)Oc3ccc(cc3Cl)CC3NC(=O)C(NCc5cccc(Oc6ccccc6)c5)c5ccc(O)c(c5)Oc5cc(O)cc(c5)C(NC3=O)C(=O)NC4C(=O)NC3C(=O)NC2C(=O)NC(C(=O)O)c2cc(O)cc(OC4OC(CO)C(O)C(O)C4O)c2-c2cc3ccc2O)OC(CO)C(O)C1O (stereo not drawn) [Example 11] | 0.25 µg/mL (≈ 0.12 µM) | 2 µg/mL (≈ 0.957 µM) | 0.125 µg/mL (≈ 0.0598 µM) | ≤ .06 µg/mL | 1 µg/mL (≈ 0.478 µM) | 0.25 µg/mL (≈ 0.12 µM) | ≤ .06 µg/mL | 1 µg/mL (≈ 0.478 µM) | ≤ .06 µg/mL | 1 µg/mL (≈ 0.478 µM) | ≤ .06 µg/mL | ≤ .06 µg/mL | ≤ .06 µg/mL | 0.25 µg/mL (≈ 0.12 µM) | > 64 | 0.25 µg/mL (≈ 0.12 µM) | 16 (≈ 7.66 µM) | 0.5 µg/mL (≈ 0.239 µM) | 2 µg/mL (≈ 0.957 µM) | > 64 µg/mL | Resist. MIC [25]: 3.4 µg/mL; Sens. MIC [26]: 0.11 µg/mL; MIC S. aureus 491 [23]: 0.25 µg/mL (≈ 0.12 µM); MIC S. aureus X400 [24]: 0.5 µg/mL (≈ 0.239 µM) |
